Earlier results in US6717012B2, “Antioxidant nitroxides and nitrones as therapeutic agents” (priority 2001, dated 2004).

What was measured:
[1] = tested on: rats with an experimental painful peripheral neuropathy
[2] = target: T1, 5-hydroxytryptamine 5-HT3 receptors (Homo sapiens, UniProt P46098)
T1 sequence (P46098 24-478): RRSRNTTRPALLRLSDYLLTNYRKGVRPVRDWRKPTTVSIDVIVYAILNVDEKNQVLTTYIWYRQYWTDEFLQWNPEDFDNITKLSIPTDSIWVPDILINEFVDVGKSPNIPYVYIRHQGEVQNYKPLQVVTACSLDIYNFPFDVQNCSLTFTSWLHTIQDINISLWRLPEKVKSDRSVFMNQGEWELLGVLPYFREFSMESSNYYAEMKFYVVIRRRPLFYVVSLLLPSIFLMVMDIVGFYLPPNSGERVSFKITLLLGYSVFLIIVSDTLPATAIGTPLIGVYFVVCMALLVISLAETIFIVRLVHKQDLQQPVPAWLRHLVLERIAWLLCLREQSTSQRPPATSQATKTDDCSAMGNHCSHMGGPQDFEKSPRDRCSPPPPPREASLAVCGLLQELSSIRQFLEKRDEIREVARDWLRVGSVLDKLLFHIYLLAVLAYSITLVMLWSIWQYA

[3] = tested on: cortical and retinal neuron cultures
[4] = target: PCP and MK-801 binding sites of the NMDA receptor (Homo sapiens, UniProt Q05586); conditions: postmortem human frontal cortex, at therapeutic concentrations
[5] = tested on: quinolic acid-induced hippocampal damage; conditions: rats
[6] = tested on: nicotinic acetylcholine receptors
NMDA receptor = NMDA receptor (Homo sapiens, UniProt Q05586)
[7] = target: NMDA channel ([3H]dizocilpine binding to brain membranes) (Homo sapiens, UniProt Q05586)

block of 5-HT3 receptors [2] | binding to PCP and MK-801 binding sites [4] | block of nicotinic acetylcholine receptors [6] | antagonist potency at the NMDA receptor (NMDA receptor) | inhibition of [3H]dizocilpine binding [7] | SMILES | effect on heat hyperalgesia [1] | protection from toxicity of glutamate, NMDA and HIV-1 coat protein gp120 [3] | prevention of quinolic acid-induced hippocampal damage [5]
 |  |  |  |  | CC1(C)CC(O)CC(C)(C)N1[O] [4-hydroxy-2,2,6,6-tetramethylpiperidine-1-oxyl] | alleviated heat hyperalgesia |  | 
blocks | binds | blocks | micromolar antagonist | inhibits | CC12CC3CC(C)(C1)CC(N)(C3)C2 [Memantine, 1-amino-3,5-dimethyladamantane] |  | protects | prevents
